Values quoted from earlier work in patent publication US20210145844A1, “COMBINATION THERAPY FOR NICOTINE ADDICTION” (Amygdala Neurosciences, Inc., priority 2018, published 2021).

Experiments:
hMAO-B = molecular target: T1, hMAO-B (Homo sapiens, UniProt P27338); settings: read-out: IC50 hMAO-B
T1 sequence (P27338 1-520): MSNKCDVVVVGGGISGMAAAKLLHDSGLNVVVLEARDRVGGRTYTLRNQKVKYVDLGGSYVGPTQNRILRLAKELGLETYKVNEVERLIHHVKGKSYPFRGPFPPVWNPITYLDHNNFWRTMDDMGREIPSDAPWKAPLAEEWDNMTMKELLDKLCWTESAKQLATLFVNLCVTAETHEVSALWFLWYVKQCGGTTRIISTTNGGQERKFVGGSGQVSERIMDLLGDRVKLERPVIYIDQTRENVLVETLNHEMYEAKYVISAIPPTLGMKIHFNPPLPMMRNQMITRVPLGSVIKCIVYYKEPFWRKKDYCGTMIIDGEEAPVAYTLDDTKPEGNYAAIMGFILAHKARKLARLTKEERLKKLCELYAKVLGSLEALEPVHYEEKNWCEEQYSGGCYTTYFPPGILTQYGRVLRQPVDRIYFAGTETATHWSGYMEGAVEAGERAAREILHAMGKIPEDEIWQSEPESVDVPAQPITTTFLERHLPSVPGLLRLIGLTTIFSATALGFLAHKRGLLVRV

hMAO-A = molecular target: T2, hMAO-A (Homo sapiens, UniProt P21397); settings: read-out: IC50 hMAO-A
T2 sequence (P21397 1-527): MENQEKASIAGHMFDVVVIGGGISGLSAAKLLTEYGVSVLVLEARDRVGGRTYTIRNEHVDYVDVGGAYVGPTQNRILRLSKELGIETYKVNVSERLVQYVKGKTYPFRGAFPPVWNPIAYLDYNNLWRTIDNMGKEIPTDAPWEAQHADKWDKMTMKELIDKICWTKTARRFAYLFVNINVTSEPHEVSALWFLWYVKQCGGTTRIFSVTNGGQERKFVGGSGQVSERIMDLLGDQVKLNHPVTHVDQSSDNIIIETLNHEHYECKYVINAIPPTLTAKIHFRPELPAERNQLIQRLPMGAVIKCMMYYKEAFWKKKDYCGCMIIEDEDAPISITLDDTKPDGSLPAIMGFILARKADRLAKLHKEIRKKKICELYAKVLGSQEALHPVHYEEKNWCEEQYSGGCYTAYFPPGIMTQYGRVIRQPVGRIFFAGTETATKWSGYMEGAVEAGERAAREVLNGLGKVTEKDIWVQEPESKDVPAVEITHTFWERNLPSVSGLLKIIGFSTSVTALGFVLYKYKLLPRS

[1] = in vivo
human ALDH-2 enzyme = molecular target: T3, human ALDH-2 enzyme (Homo sapiens, UniProt P05091); settings: read-out: IC50 ALDH-2
T3 sequence (P05091 18-517): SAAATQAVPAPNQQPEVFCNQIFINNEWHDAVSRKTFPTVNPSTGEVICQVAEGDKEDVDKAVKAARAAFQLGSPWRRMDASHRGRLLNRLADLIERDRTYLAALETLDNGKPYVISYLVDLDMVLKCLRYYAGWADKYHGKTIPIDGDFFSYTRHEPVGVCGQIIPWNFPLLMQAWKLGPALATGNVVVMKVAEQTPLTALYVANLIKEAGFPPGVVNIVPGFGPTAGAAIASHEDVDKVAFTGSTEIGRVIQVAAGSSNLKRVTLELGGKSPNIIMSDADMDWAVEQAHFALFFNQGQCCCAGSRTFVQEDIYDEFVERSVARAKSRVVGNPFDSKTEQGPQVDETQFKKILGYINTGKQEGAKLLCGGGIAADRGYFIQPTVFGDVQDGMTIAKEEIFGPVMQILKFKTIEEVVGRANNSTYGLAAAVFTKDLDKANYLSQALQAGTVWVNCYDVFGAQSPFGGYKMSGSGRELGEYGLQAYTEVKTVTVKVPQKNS

SMILES | IC50 (hMAO-B) [µM] | IC50 (hMAO-A) [µM] | also measured
Cc1cccc(Cl)c1C(=O)NCc1ccc(-c2cc[nH]c(=O)c2)cc1 [(5), 2-chloro-6-methyl-N-(4-(2-oxo-1,2-dihydropyridin-4-yl)benzyl)benzamide] | > 130 | > 130 | –
O=C(NCc1ccc(-c2cc[nH]c(=O)c2)cc1)c1c(F)ccc(F)c1Cl [(8), 2-chloro-3,6-difluoro-N-(4-(2-oxo-1,2-dihydropyridin-4-yl)benzyl)benzamide] | > 130 | > 130 | –
Cc1cc(CNC(=O)c2c(Cl)cccc2Cl)ccc1-c1cc[nH]c(=O)c1 [(9), 2,6-dichloro-N-(3-methyl-4-(2-oxo-1,2-dihydropyridin-4-yl)benzyl)benzamide] | > 130 | > 130 | –
Cn1ccc(-c2ccc(CNC(=O)c3c(Cl)cccc3Cl)cc2)cc1=O [(10), 2,6-dichloro-N-(4-(1-methyl-2-oxo-1,2-dihydropyridin-4-yl)benzyl)benzamide] | > 130 | > 130 | –
O=C(NCc1ccc(-c2cc[nH]c(=O)c2)cc1F)c1c(Cl)cccc1Cl [(13), 2,6-dichloro-N-(2-fluoro-4-(2-oxo-1,2-dihydropyridin-4-yl)benzyl)benzamide] | > 130 | > 130 | –
O=C(NCc1ccc(-c2ccn(COP(=O)(O)O)c(=O)c2)cc1)c1c(Cl)cccc1Cl [Compound (2), phosphoric acid mono-(4-{4-[(2,6-dichloro-benzoylamino)-methyl]-phenyl}-2-oxo-2H-pyridin-1-ylmethyl) ester] | > 130 | > 130 | in vivo metabolism of prodrug: undergoes in vivo cleavage of the phosphoric acid group to yield compound (1); IC50 (human ALDH-2 enzyme): > 10 µM
O=C(O)C(O)C(O)C(=O)O.c1cnc2cc3c(cc2n1)[C@@H]1CNC[C@H]3C1 [varenicline, 7,8,9,10-tetrahydro-6,10-methano-6H-pyrazino[2,3-h][3]benzazepine] | – | – | varenicline discontinuation due to gastrointestinal side-effects (patients; estimated): 2%-8%; incidence of nausea at larger doses (patients; larger doses, placebo 10%): 30%; mild nausea, share of patients (patients; most common side effect, smoking cessation use): ~30 % of patients; incidence of nausea at smaller doses (patients; smaller doses, placebo 11%): 16%

More lines, main results first:

IC50 (hMAO-B) [µM] | IC50 (hMAO-A) [µM] | SMILES | also measured
> 130 | > 130 | COCCOc1cc(Cl)c(C(=O)NCc2ccc(-c3cc[nH]c(=O)c3)cc2)c(Cl)c1 [(3), 2,6-dichloro-4-(2-methoxyethoxy)-N-(4-(2-oxo-1,2-dihydropyridin-4-yl)benzyl)benzamide] | –
> 130 | > 130 | O=C(NCc1ccc(-c2cc[nH]c(=O)c2)cc1)c1cccc(F)c1Cl [(4), 2-chloro-3-fluoro-N-(4-(2-oxo-1,2-dihydropyridin-4-yl)benzyl)benzamide] | –
> 130 | > 130 | Cc1cccc(C)c1C(=O)NCc1ccc(-c2cc[nH]c(=O)c2)cc1 [(6), 2,6-dimethyl-N-(4-(2-oxo-1,2-dihydropyridin-4-yl)benzyl)benzamide] | –
> 130 | > 130 | Cc1cc(-c2ccc(CNC(=O)c3c(Cl)cccc3Cl)cc2)cc(=O)[nH]1 [(7), 2,6-dichloro-N-[4-(6-methyl-2-oxo-1,2-dihydro-pyridin-4-yl)-benzyl]-benzamide] | –
> 130 | > 130 | O=C(NCc1ccc(-c2cc[nH]c(=O)c2)cc1)c1c(F)cccc1F [(11), 2,6-difluoro-N-(4-(2-oxo-1,2-dihydropyridin-4-yl)benzyl)benzamide] | –
> 130 | > 130 | O=C(NCc1ccc(-c2cc[nH]c(=O)c2)cc1)c1c(F)cccc1Cl [(12), 2-chloro-6-fluoro-N-(4-(2-oxo-1,2-dihydropyridin-4-yl)benzyl)benzamide] | –
> 130 | > 130 | O=C(NCc1ccc(-c2cc(=O)[nH]cc2F)cc1)c1c(Cl)cccc1Cl [(14), 2,6-dichloro-N-(4-(5-fluoro-2-oxo-1,2-dihydropyridin-4-yl)benzyl)benzamide] | –
> 130 | > 130 | O=C(NCc1ccc(-c2cc[nH]c(=O)c2)cc1)c1c(Cl)cccc1Cl [Compound (1), 2,6-dichloro-N-[4-(2-oxo-1,2-dihydro-pyridin-4-yl)-benzyl]-benzamide] | self-administration of nicotine (rats): suppress self-administration of nicotine in rats; intake of cocaine and alcohol [1]: reduce intake of cocaine and alcohol
